Experiments:
[1] = test system: influenza A/PR/8/34 (H1N1); assay: microbe, parasite or virus in culture; settings: MDCK
[2] = Cytotoxicity assay (EZ-Cytox) in MDCK cells; type: cell-based, canine; settings: dog; MDCK cells, 48 hr
Experimental: (§1) To determine the 50% cytotoxic concentration (CC50) for each of the tested flavonoid compounds, MDCK cells were seeded onto 96-well plates (NUNC, Penfield, NY, USA) at a density of 1 × 10^4 cells per well and incubated overnight for 80% confluence. MDCK cells were washed twice with PBS and the culture medium was replaced with medium containing serially diluted flavonoids (concentrations from 10μM up to 300 μM) for 48 hr at 37°C in a 5% CO2atmosphere. After the incubation period, the flavonoid-containing media was replaced with new media containing 10% EZ-Cytox (Daeil Lab Service, Seoul, South Korea), and the cells were incubated in the dark for 3 hr at 37°C in a 5% CO2 atmosphere. The optical density was measured at 480 nm using an x-Mark spectrophotometer (Bio-Rad, Hercules, CA, USA). Cytotoxicity was estimated by comparing the cell survival rate of the flavonoids-treated cells and the DMSO-treated cells with the control (virus-untreated) cells. The control cell values were arbitrarily set as the 100% survival rate. The treated cells values were normalized to the control cell values. The calculation of CC50 was carried out as described in detail in S1 Text.
(§2) The 50% cytotoxic concentration (CC50) was calculated according to the following equation:
(§3) Cytotoxicity (%) = [100-(ODt/ODs)] x100
(§4) ODt: The optical density (OD) of cells treated with the tested flavonoids.
(§5) ODs: The OD of cells treated with the control solvent (0.2 % DMSO).
(§6) After obtaining the results, we calculated the concentration that induces 50% cell death using the following equation:
(§7) (X2 - X1) X (50-Y1) / (Y2 - Y1) + X1. Where, X1 represents the lower concentration used in this experiment, while X2 represents the higher concentration. Y1 represents the mean of the percentage of the viable cells at X1 concentration. On the other hand, Y2 represents the mean of the percentage of the viable cells at X2 concentration.”

[3] = test system: MDCK cells; assay: Cytotoxicity assay (EZ-Cytox) in MDCK cells; type: cell-based, canine; settings: especially at 50μM and 100μM
Experimental: as §1, §2, §3, §4, §5, §6, §7

[4] = test system: influenza A/PR/8/34 (H1N1); assay: in vitro; settings: dog, SI (selective index, CC50/EC50), Post-treatment
[5] = test system: influenza A/PR/8/34 (H1N1); settings: post-treatment
[6] = test system: influenza A/PR/8/34 (H1N1); type: cell-based, influenza A virus; settings: post-treatment 48 hr

Row | SMILES | EC50 ([1]; 48 h, Post-treatment) | CC50 at 48 h [2] | cell viability of MDCK cells [3] | selectivity ratio [4] | influenza virus-induced cell death [5] | virus titer in HA assay (virus yield reduction) [6] | EC50 ([1]; 0.5 h, Co-treatment (0.5 hr)) | EC50 ([1]; 1 h, Co-treatment (1 hr)) | EC50 ([1]; 2 h, Co-treatment (2 hr)) | EC50 ([1]; Pre-treatment (1 hr)) | EC50 ([1]; Pre-treatment (12 hr)) | EC50 ([1]; Pre-treatment (24 hr))
1 | COc1ccc(-c2cc(=O)c3c(O)cc(O)cc3o2)cc1O [Diosmetin, diosmetin] | 124 µM | – | – | – | – | – | – | – | – | – | – | –
2 | O=C1C[C@@H](c2ccc(O)c(O)c2)Oc2cc(O)cc(O)c21 [Eriodictyol, eriodictyol] | 115 µM | 256 µM | significant decrease | 2 | – | – | – | – | – | – | – | –
3 | O=c1c(O)c(-c2ccc(O)cc2)oc2cc(O)cc(O)c12 [Kaempferol, kaempferol] | 35 µM | 245 µM | – | 7 | apparent suppression | significantly decreased | – | – | – | – | – | –
4 | O=c1c(O)c(-c2ccc(O)c(O)c2)oc2cc(O)cc(O)c12 [Quercetin, quercetin] | 30 µM | > 265 µM | – | > 9 | apparent suppression | significantly decreased | 106 µM | 62 µM | 43 µM | 78 µM | 85 µM | 98 µM
